# Laboratory results from patent US9115151B2, “Substituted 2,10-dihydro-9-oxa-1,2,4A-triazaphenanthren-3-ones and uses thereof” (AbbVie Inc., priority 2012, dated 2015).
# Structures can show the parent of a compound that is named as a salt.
# Columns and labels:
# PKCθ = molecular target: T1, PKCθ (Homo sapiens, UniProt Q04759); test: In vitro enzyme assay (time-resolved fluorescence kinase assay), PKCθ, 100 μM ATP; type: biochemical
# T1 construct: His6; purchased Millipore; host or cells: baculovirus in Sf21 cells
# Description: (§1) PKC kinase activity was assayed by time-resolved fluorescence in vitro kinase assay. Unless otherwise indicated, all reagents used for enzyme assays were obtained from Sigma. Specifically, 5 μL N- or C-terminal His6-tagged, recombinant, human PKC, expressed by baculovirus in Sf21 cells (Millipore) was mixed with 5 μL inhibitor (various concentrations, 5% final DMSO), 5 μL Bio-cdc peptide (Biotin-Ahx-[…], 2 μM final concentration, New England Peptide) and 5 μL of ATP (100 μM or 1000 μM final concentration) in 1× reaction buffer, 20 μL final volume.
# (§2) Following a sixty minute incubation at room temperature, the reaction was quenched with 5 μL of 0.5 M EDTA pH 7.5.
# (§3) Background counts from a minus enzyme control is subtracted from all data. Data (after background correction) are converted to percent activity by dividing by the signal obtained from PKC without drug sample.
# [1] = system: CD3/CD28 induced IL-2 in human T-Blasts; test: T-Blasts CD3/CD28 induced IL-2 assay; type: cell-based; settings: read-out: CD3/CD28-stimulated IL2 in T-blasts EC50
# Description: T-Blasts CD3/CD28 Induced IL-2 Assay
# Human T-Blasts are generated using PHA following standard protocols. T-Blasts are freeze aliquoted and vials thawed as required. […] Seed 2×10^5/100 μL cell suspension per well in flat bottomed 96 well plate. Compound dilutions are prepared from 100% DMSO stocks. A total of 8 serial dilutions are made (1/3 in 100% DMSO). Compounds are diluted 1/50 in growth medium to prepare 4× stocks of each tested concentration. 50 μL from each 4× stock concentration is added to the 100 μL cell suspension and incubated for 30 minutes prior stimulus addition. A 4× stimulus stock is prepared using anti-CD3+anti-CD28 antibodies. Antibody mix is added to the cell/compounds suspension in 50 μL at 5 μg/mL final concentration. Compounds are tested in duplicates. Plates are transferred to 37° C./CO2 incubator for 24 hours. After incubation 130 μL of supernatant is collected for IL-2 determination while MTT toxicity analysis is performed on remaining cells/medium.
# PKCα = molecular target: T2, PKCα (Homo sapiens, UniProt P17252); test: In vitro enzyme assay (time-resolved fluorescence kinase assay), PKCα, 100 μM ATP; type: biochemical; settings: 100 μM ATP; read-out: PKCα enzyme IC50
# T2 construct: His6; purchased Millipore; host or cells: baculovirus in Sf21 cells
# Description: as §1, §2, §3
# T1 sequence (Q04759 whole entry): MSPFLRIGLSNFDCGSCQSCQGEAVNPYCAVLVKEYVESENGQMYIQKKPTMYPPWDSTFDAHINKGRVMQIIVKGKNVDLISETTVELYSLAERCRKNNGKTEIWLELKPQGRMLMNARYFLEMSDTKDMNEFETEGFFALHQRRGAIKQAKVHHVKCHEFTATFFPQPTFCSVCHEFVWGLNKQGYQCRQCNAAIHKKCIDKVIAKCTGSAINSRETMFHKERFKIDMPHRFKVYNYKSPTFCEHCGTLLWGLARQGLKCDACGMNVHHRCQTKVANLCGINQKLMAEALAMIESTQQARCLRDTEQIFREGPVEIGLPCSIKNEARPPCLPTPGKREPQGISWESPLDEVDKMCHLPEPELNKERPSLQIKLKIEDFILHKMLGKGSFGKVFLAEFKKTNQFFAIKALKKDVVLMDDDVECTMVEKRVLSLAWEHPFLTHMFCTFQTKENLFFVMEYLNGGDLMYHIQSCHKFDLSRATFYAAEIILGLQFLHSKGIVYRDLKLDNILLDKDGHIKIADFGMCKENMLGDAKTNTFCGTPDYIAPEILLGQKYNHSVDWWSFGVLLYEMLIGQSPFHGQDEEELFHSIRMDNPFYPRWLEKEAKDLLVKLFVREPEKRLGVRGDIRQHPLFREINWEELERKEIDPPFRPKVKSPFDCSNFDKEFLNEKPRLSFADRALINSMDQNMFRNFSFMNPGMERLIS
SMILES,IC50 (PKCθ) [nM],EC50 [1] [nM],IC50 (PKCα) [nM]
CC1C(=O)NN=C2COc3cc(F)c(C4CCNCC4)cc3N21 (stereo not drawn) [Example 72],250 to 1000,1000 to 10000,1000 to 10000
"C[C@@H]1C(=O)NN=C2COc3cc(-c4c(F)cccc4N4CCNCC4)ccc3N21 [Example 130, (R)-7-(2-Fluoro-6-piperazin-1-yl-phenyl)-4-methyl-2,10-dihydro-9-oxa-1,2,4a-triaza-phenanthren-3-one trifluoroacetic acid]",250 to 1000,250 to 1000,1000 to 10000
CC1C(=O)NN=C2COc3cc(-c4cccc(F)c4)c(N(C)C4(C)CN(C)C4)cc3N21 (stereo not drawn) [Example 169],< 250,< 250,250 to 1000
"C[C@H]1C(=O)NN=C2COc3cc(-c4ccccc4F)c(N(C)[C@]4(C)CCN(C)C4)cc3N21 (single isomer, unassigned) [Example 198-2]",< 250,1000 to 10000,1000 to 10000
COc1ccc(-c2cc3c(cc2NC2CNC2)N2C(=NNC(=O)C2C)CO3)cc1 (racemic) [Example 30],< 250,250 to 1000,1000 to 10000
CC1C(=O)NN=C2COc3cc(-c4ccc(F)cc4F)c(NC4CNC4)cc3N21 (racemic) [Example 47],< 250,< 250,1000 to 10000
C[C@@H]1CN(C)CCN1c1cc2c(cc1-c1ccccc1F)OCC1=NNC(=O)[C@@H](C)N12 [Example 230],< 250,< 250,250 to 1000
"Cc1cc2c(cc1OC1(C)CNC1)N1C(=NNC(=O)C1C)CO2 (stereo not drawn) [Example 83, 4,7-Dimethyl-6-(3-methyl-azetidin-3-yloxy)-2,10-dihydro-9-oxa-1,2,4a-triaza-phenanthren-3-one trifluoroacetic acid]",< 250,< 250,1000 to 10000
Cc1cn(C2(C)CNC2)c2cc3c(cc12)OCC1=NNC(=O)[C@@H](C)N13 [Example 157],< 250,< 250,250 to 1000
"CC1C(=O)NN=C2COc3cc(C(F)(F)F)c(CC4CNC4)cc3N21 (stereo not drawn) [Example 99, 6-Azetidin-3-ylmethyl-4-methyl-7-trifluoromethyl-2,10-dihydro-9-oxa-1,2,4a-triaza-phenanthren-3-one trifluoroacetic acid]",< 250,250 to 1000,1000 to 10000
CC1C(=O)NN=C2COc3cc(-c4ccccc4)c(N(C)C4(C)CN(CC5CCOCC5)C4)cc3N21 (stereo not drawn) [Example 95],< 250,< 250,250 to 1000
"CC1C(=O)NN=C2COc3ccc(CC4CNC4)cc3N21 (stereo not drawn) [Example 78, 6-Azetidin-3-ylmethyl-4-methyl-2,10-dihydro-9-oxa-1,2,4a-triaza-phenanthren-3-one trifluoroacetic acid]",< 250,< 250,1000 to 10000
C[C@@H]1C(=O)NN=C2COc3cc(-c4ccc(Cl)cc4Cl)c(NC4CNC4)cc3N21 [Example 8],< 250,< 250,1000 to 10000
"CC(C)c1cc2c(cc1OC1(C)CNC1)N1C(=NNC(=O)C1C)CO2 (stereo not drawn) [Example 82, 7-Isopropyl-4-methyl-6-(3-methyl-azetidin-3-yloxy)-2,10-dihydro-9-oxa-1,2,4a-triaza-phenanthren-3-one trifluoroacetic acid]",< 250,< 250,250 to 1000
C[C@@H]1C(=O)NN=C2COc3cc(-c4cccc(F)c4)c(NC4CNC4)cc3N21 [Example 6],< 250,< 250,1000 to 10000
CC1C(=O)NN=C2COc3cc(-c4ccc(Cl)cc4)c(NC4CNC4)cc3N21 (racemic) [Example 45],< 250,< 250,1000 to 10000
C[C@@H]1C(=O)NN=C2COc3cc(-c4ccccc4F)c(N(C)C4(C)CN(CCC(F)(F)F)C4)cc3N21 [Example 193],< 250,250 to 1000,1000 to 10000
"CC1C(=O)NN=C2COc3cc(C(C)C(F)(F)F)c(NC4CNC4)cc3N21 (stereo not drawn) [Example 112, 9-(Azetidin-3-ylamino)-1-methyl-8-(1,1,1-trifluoropropan-2-yl)-3,5-dihydrobenzo[5,6][1,4]oxazino[3,4-c][1,2,4]triazin-2(1H)-one trifluoroacetic acid salt]",1000 to 10000,1000 to 10000,1000 to 10000
"CC(=O)N1CC(C)(n2ccc3cc4c(cc32)N2C(=NNC(=O)[C@H]2C)CO4)C1 [Example 155, (R)-10-(1-Acetyl-3-methyl-azetidin-3-yl)-1-methyl-3,5-dihydro-10H-6-oxa-3,4,10,11b-tetraaza-cyclopenta[b]phenanthren-2-one hydrochloric acid]",< 250,250 to 1000,1000 to 10000
CC1C(=O)NN=C2COc3cc(-c4ccc(C#N)cc4)c(NC4CNC4)cc3N21 (racemic) [Example 41],250 to 1000,250 to 1000,1000 to 10000
CC1C(=O)NN=C2COc3cc(-c4ccccc4C(F)(F)F)c(NC4CNC4)cc3N21 (racemic) [Example 28],< 250,< 250,1000 to 10000
"CC(C)c1cc2c(cc1[C@@H](C)C1(C)CN(CCO)C1)N1C(=NNC(=O)[C@H]1C)CO2 [Example 138, (R)-6-{(R)-1-[1-(2-Hydroxy-ethyl)-3-methyl-azetidin-3-yl]-ethyl}-7-isopropyl-4-methyl-2,10-dihydro-9-oxa-1,2,4a-triaza-phenanthren-3-one hydrochloric acid]",< 250,250 to 1000,250 to 1000

# Second part, the compound after the results:
IC50 (PKCθ) [nM],EC50 [1] [nM],IC50 (PKCα) [nM],SMILES
< 250,250 to 1000,1000 to 10000,CCC1(n2ccc3cc4c(cc32)N2C(=NNC(=O)[C@H]2C)CO4)CNC1 [Example 150]
< 250,< 250,1000 to 10000,CC1C(=O)NN=C2COc3cc(-c4cccc(Cl)c4)c(NC4CNC4)cc3N21 (racemic) [Example 17]
< 250,1000 to 10000,1000 to 10000,CC1C(=O)NN=C2COc3cc(-c4ccccc4F)c(N4CC5CCC4CN5C)cc3N21 (stereo not drawn) [Example 236]
< 250,< 250,< 250,"C[C@H](O)CN1CC(C)([C@H](C)c2cc3c(cc2-c2ccccc2F)OCC2=NNC(=O)[C@@H](C)N23)C1 [Example 139, (R)-7-(2-Fluoro-phenyl)-6-{(R)-1-[1-((S)-2-hydroxy-propyl)-3-methyl-azetidin-3-yl]-ethyl}-4-methyl-2,10-dihydro-9-oxa-1,2,4a-triaza-phenanthren-3-one hydrochloric acid]"
< 250,< 250,1000 to 10000,"C[C@@H]1C(=O)NN=C2COc3cc(-c4ccccc4)c(NC4CNC4)cc3N21 (single isomer, unassigned) [Example 1-1, trifluoroacetic acid]"
< 250,< 250,< 250,Cc1ccccc1-c1cc2c(cc1N(C)C1(C)CN(C)C1)N1C(=NNC(=O)C1C)CO2 (stereo not drawn) [Example 88]
< 250,< 250,< 250,CC1C(=O)NN=C2COc3cc(-c4ccccc4)c(N(C)C4(C)CNC4)cc3N21 (stereo not drawn) [Example 90]
< 250,< 250,< 250,"C[C@@H]1C(=O)NN=C2COc3cc(-c4ccccc4F)c([C@@H](C)C4(C)CNC4)cc3N21 [Example 146, (R)-7-(2-Fluoro-phenyl)-4-methyl-6-[(R)-1-(3-methyl-azetidin-3-yl)-ethyl]-2,10-dihydro-9-oxa-1,2,4a-triaza-phenanthren-3-one]"
< 250,< 250,1000 to 10000,"CC1C(=O)NN=C2COc3cc(-c4ccccc4)c(C4CCNCC4)cc3N21 (stereo not drawn) [Example 119, 1-Methyl-8-phenyl-9-(piperidin-4-yl)-3,5-dihydrobenzo[5,6][1,4]oxazino[3,4-c][1,2,4]triazin-2(1H)-one trifluoroacetic acid]"
< 250,< 250,1000 to 10000,"CC1C(=O)NN=C2COc3cc(F)c(NC4(C)CNC4)cc3N21 (stereo not drawn) [Example 84, 8-Fluoro-1-methyl-9-((3-methylazetidin-3-yl)amino)-3,5-dihydrobenzo[5,6][1,4]oxazino[3,4-c][1,2,4]triazin-2(1H)-one trifluoroacetic acid]"
< 250,< 250,250 to 1000,C[C@@H]1C(=O)NN=C2COc3cc(-c4ccccc4F)c(N4CCN(C)[C@@H](C)C4)cc3N21 [Example 232]
< 250,< 250,1000 to 10000,"CC(C)c1cc2c(cc1NC1CNC1)N1C(=NNC(=O)[C@H]1C)CO2 (single isomer, unassigned) [Example 57-1, trifluoroacetic acid]"
